One experiment deals with T1, human PLC-β2 (Homo sapiens, UniProt Q00722).
T1 construct: made in house; host or cells: Sf9 cells (Spodoptera frugiperda), recombinant baculovirus
Briefly: PLC assay using FlashPlates (96-well, immobilized [3H]PIP2 substrate). Type of experiment: biochemical. The note with it: purified recombinant human PLC-β2 or cytosolic human PLC-β2; hydrolysis of [3H]PIP2. An outline of the steps: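 Purified recombinant human PLC-β2 (Sf9 baculovirus) or cytosolic PLC-β2 from HL-60 cells hydrolysed [3H]PIP2 immobilised on phospholipid FlashPlates. Reactions ran in 50 mM Tris/HCl pH 7.2 with EDTA, KCl, LiCl, 0.04% DOC and 2 mM CaCl2. Activity was read as loss of bound radioactivity by scintillation counting.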

The test system of experiment [1] is PMA-induced ear edema. Briefly: Acute PMA-induced ear edema mouse model. Format: in vivo. An excerpt: The acute PMA-induced ear edema mouse model was used to test compounds of the present […] (as described in Carlson R P, O'Neill-Davis L, Chang J. and Lewis A J, Modulation of Mouse Ear Edema by Cyclooxygenase and Lipoxygenase Inhibitors and Other Pharmacologic Agents, Agents and Actions, 1985, 17:197-204).

The test system of experiment [2] is PMA-induced ear edema. Briefly: Chronic PMA-induced ear edema mouse model. The conditions noted are these: 0.5 mg dose applied topically. Type of experiment: in vivo. An excerpt:
The chronic PMA-induced ear edema mouse model was used to test Compound 38 (as described in Stanley P L, Steiner S, Havens M and Tramposch K M, Mouse Skin Inflammation Induced by Multiple Topical Applications of 12-O-Tetradecanoylphorbol-13-acetate, Skin Pharmacol., 1991, 4: 262-271).

Experiment [3] concerns zymosan-induced peritonitis. Briefly: Zymosan-induced peritonitis mouse model. Format: in vivo. The note with it: 30 mpk dose administered i.p. The text has this: The zymosan-induced peritonitis model was used to test Compound 38 (as described in Rao T S, Currie J L, Shaffer A F and Isakson P C, In vivo Characterization of Zymosan-Induced Mouse Peritoneal Inflammation, J. Pharm. Exptl. Ther., 1994, 269: 917-925).

Experiment [4] has as its system adjuvant-induced arthritis. Briefly: Adjuvant-induced arthritis rat model. Format: in vivo. The conditions noted are these: administered i.p. An excerpt:
The adjuvant-induced arthritis rat model was used to test Compound 38 (as described in Anderson G D, Hauser S D, McGarity K L, Bremer M E, Isakson P C and Gregory S A, Selective Inhibition of Cyclooxygenase (Cox)-2 Reverses Inflammation and Expression of Cox-2 and Interleukein 6 in Rat Adjuvant Arthritis, J. Clin. Invest., 1996, 97:2672-2679).

The subject of experiment [5] is carageenan-induced paw edema. Briefly: Carageenan-induced paw edema rat model. Type of experiment: in vivo. An excerpt: The carageenan-induced paw edema rat model was used to test Compound 38 (as described in Vinegar R, Truax J F, Selph J L, Johnston P R, Venable A L and McKenzie K K, Pathway to Carrageenan-Induced Inflammation in the Hind Limb of the Rat, Fed. Proc., 1987, 46:118-126).

SMILES strings stand for the structures.

From patent US20040235855A1, “Phospholipase C inhibitors for use in treating inflammatory disorders” (priority 2003, published 2004) come the findings set out here.

The term IC50 denotes the concentration at which inhibition is half-maximal. For orientation: % Inhibition means the percentage by which the read-out fell short of the control. A high value points to strong suppression. The inhibition is the change of the read-out against control, counted positive when it falls.

T1 sequence (Q00722 whole entry): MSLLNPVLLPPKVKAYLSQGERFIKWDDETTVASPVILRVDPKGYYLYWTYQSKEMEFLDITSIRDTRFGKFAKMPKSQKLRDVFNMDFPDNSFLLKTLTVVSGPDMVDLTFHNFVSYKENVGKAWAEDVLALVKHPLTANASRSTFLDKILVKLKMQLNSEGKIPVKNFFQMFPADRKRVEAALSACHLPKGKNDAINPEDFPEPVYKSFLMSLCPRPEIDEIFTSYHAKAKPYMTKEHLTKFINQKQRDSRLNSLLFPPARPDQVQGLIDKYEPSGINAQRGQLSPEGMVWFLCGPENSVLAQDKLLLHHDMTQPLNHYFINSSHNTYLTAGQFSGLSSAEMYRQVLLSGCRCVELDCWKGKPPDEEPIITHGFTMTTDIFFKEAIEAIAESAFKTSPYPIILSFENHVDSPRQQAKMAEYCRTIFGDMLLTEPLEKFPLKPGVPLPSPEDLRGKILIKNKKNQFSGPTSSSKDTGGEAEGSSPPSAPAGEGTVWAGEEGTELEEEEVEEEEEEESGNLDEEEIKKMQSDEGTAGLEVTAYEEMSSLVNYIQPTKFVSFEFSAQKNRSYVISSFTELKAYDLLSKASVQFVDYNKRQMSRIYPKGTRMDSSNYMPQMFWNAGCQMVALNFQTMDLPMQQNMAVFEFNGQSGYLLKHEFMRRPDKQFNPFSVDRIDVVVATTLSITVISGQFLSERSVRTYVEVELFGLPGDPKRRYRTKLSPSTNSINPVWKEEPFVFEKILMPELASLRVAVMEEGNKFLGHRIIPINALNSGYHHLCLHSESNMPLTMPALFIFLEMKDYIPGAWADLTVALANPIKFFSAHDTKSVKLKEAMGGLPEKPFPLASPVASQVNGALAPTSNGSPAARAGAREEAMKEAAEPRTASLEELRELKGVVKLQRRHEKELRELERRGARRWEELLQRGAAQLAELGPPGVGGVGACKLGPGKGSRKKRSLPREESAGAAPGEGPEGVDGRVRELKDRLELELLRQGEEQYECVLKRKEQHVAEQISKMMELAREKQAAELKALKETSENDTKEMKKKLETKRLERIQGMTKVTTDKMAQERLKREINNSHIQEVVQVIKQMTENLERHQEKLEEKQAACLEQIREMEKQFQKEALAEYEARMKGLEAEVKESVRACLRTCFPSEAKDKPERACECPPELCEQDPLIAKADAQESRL

Turning to `NC(=O)c1ccc(N2CCN(C3c4ccccc4-c4ccccc43)CC2)c(NC(=O)Nc2ccccc2)c1` [Cpd 9, 4-[4-(9H-fluoren-9-yl)-1-piperazinyl]-3-[[(phenylamino)carbonyl]amino]-benzamide], at human PLC-β2, the IC50 is 1900 nM. The “% Inhibition” value amounted to 44% in the experiment on PMA-induced ear edema [1] (5 mpk i.v.), 52% in the experiment with PMA-induced ear edema [1] (30 mpk i.p.) and 44% with PMA-induced ear edema [1] (30 mpk p.o.).
On to `NC(=O)c1ccc(N2CCN(C(c3ccc(F)cc3)c3ccc(F)cc3)CC2)c(NC(=S)NCc2ccccc2)c1` [Cpd 21, 4-[4-[bis(4-fluorophenyl)methyl]-1-piperazinyl]-3-[[[(phenylmethyl)amino]thioxomethyl]amino]-benzamide], for which the IC50 on human PLC-β2 turned out to be 2300 nM. Also, the “% Inhibition” value with PMA-induced ear edema [1] (5 mpk i.v.) was found to be 56%; in the experiment with PMA-induced ear edema [1] (30 mpk i.p.), 83%; in the experiment on PMA-induced ear edema [1] (30 mpk p.o.) it was 31%.
On to `O=C(Nc1cc(C(=O)N2CCNCC2)ccc1N1CCN(C(c2ccccc2)c2ccccc2)CC1)NC1CCCCC1` [Cpd 38, N-cyclohexyl-N′-[2-[4-(diphenylmethyl)-1-piperazinyl]-5-(1-piperazinylcarbonyl)phenyl]-urea], for which the IC50 at human PLC-β2 came out at 2200 nM. The “% Inhibition” value in the experiment on PMA-induced ear edema [1] (5 mpk i.v.) is 47%; in the experiment with PMA-induced ear edema [1] (30 mpk i.p.) it was 84%; in the experiment with PMA-induced ear edema [1] (30 mpk p.o.), 0%. For the same molecule, the inhibition in the experiment with PMA-induced ear edema [2] is reported as 53%; in experiment [3], “about 45%”; in experiment [5] (30 mpk dose administered i.p.), 80%; in experiment [5] (30 mpk dose administered s.c.) it was 60%. The inhibition in paws entry in experiment [4] is “significant inhibition in both paws”.
With `O=C(Nc1ccccc1)Nc1cc(C(=O)N2CCNCC2)ccc1N1CCN(C(c2ccccc2)c2ccccc2)CC1` [Cpd 40, N-[2-[4-(diphenylmethyl)-1-piperazinyl]-5-(1-piperazinylcarbonyl)phenyl]-N′-phenylurea], the IC50 on human PLC-β2 was found to be 1600 nM. Further, the “% Inhibition” value in the experiment on PMA-induced ear edema [1] (5 mpk i.v.) worked out at 44%; in the experiment on PMA-induced ear edema [1] (30 mpk i.p.), 81%; with PMA-induced ear edema [1] (30 mpk p.o.), 9%.
In the case of `NC(=O)c1ccc(N2CCCN(C(c3ccc(F)cc3)c3ccc(F)cc3)CC2)c(NC(=O)NC2CCCCC2)c1` [Cpd 82, 4-[4-[bis(4-fluorophenyl)methyl]hexahydro-1H-1,4-diazepin-1-yl]-3-[[(cyclohexylamino)carbonyl]amino]-benzamide], the concentration for half-maximal inhibition (IC50) on human PLC-β2 is around 10000 nM.
With `O=C(Nc1ccccc1)Nc1ccc(C(=O)N2CCNCC2)cc1N1CCCN(C(c2ccc(F)cc2)c2ccc(F)cc2)CC1` [Cpd 89, N-[2-[4-[bis(4-fluorophenyl)methyl]hexahydro-1H-1,4-diazepin-1-yl]-4-(1-piperazinylcarbonyl)phenyl]-N′-phenyl-urea], the IC50 on human PLC-β2 was found to be 810 nM.
On the same count and under the same terms, for `O=C(Nc1ccccc1)Nc1ccc(C(=O)N2CCNCC2)cc1N1CCN(C(c2ccc(F)cc2)c2ccc(F)cc2)CC1` [Cpd 90, N-[2-[4-[bis(4-fluorophenyl)methyl]-1-piperazinyl]-4-(1-piperazinylcarbonyl)phenyl]-N′-phenyl-urea] the value was 980 nM.
As for `O=C(Nc1ccccc1)Nc1ccc(C(=O)N2CCNCC2)cc1N1CCN(C(c2ccccc2)c2ccccc2)CC1` [Cpd 91, N-[2-[4-(diphenylmethyl)-1-piperazinyl]-4-(1-piperazinylcarbonyl)phenyl]-N′-phenyl-urea], at human PLC-β2, the 50% inhibitory concentration (IC50) was determined as 1300 nM.
With `O=C(Nc1ccc(C(=O)N2CCNCC2)cc1N1CCN(C(c2ccccc2)c2ccccc2)CC1)NC1CCCCC1` [Cpd 92, N-cyclohexyl-N′-[2-[4-(diphenylmethyl)-1-piperazinyl]-4-(1-piperazinylcarbonyl)phenyl]-urea], the 50% inhibitory concentration (IC50) on human PLC-β2 stood at 1600 nM.
As to `NC(=O)c1ccc(NC(=O)Nc2ccccc2)c(N2CCN(C(c3ccccc3)c3ccccc3)CC2)c1` [Cpd 93, 3-[4-(diphenylmethyl)-1-piperazinyl]-4-[[(phenylamino)carbonyl]amino]-benzamide], the IC50 at human PLC-β2 stood at 1800 nM.
